From US20020111274A1, “1-alkyl-3-[1-(substituted phenyl) benzotriazol-6-yl] uracils” (BASF Aktiengesellschaft, priority 2000, published 2002)

Columns and labels:
Design in all cases: scale not given here
ZEAMX Corn, Field [1] = assay: Postemergence herbicidal evaluation, ZEAMX; type: in vivo, Zea mays, L. (Sammel-Bezeichnung); settings: rate 0.062 kg/ha; rated two - three weeks after treatment
Method in brief: (§1)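 Seedlings grown about two weeks were sprayed with compound in 80/20 acetone/water containing 1.0% methylated seed oil, at the equivalent of about 0.006 to 0.400 kg/ha, through a nozzle at 40 psi. Plants were kept in the greenhouse and rated visually about two to three weeks after treatment.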

[2] = test system: TRZAWR Wheat, Winter, cv Riband; assay: Preemergence herbicidal evaluation, TRZAWR; type: in vivo, Triticum aestivum; settings: rated four to five weeks after treatment
Method in brief: (§2)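 Preemergence soil spray: aqueous acetone, ~0.013–0.800 kg/ha, applied right after sowing (seed/potting-soil mix over ~1 in soil). Greenhouse, routine watering. Scored 4–5 wk post-treatment on a rating scale.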

ECHOG Barnyardgrass [3] = assay: Postemergence herbicidal evaluation, ECHOG; type: in vivo, Echinochloa crus-galli, (L.) Beau; settings: rated two - three weeks after treatment
Method in brief: as §1

CASOB Sicklepod = assay: Preemergence herbicidal evaluation, CASOB; type: in vivo, Cassia obtusifolia, L.; settings: rated four to five weeks after treatment
Method in brief: as §2

ECHOG Barnyardgrass [4] = assay: Preemergence herbicidal evaluation, ECHOG; type: in vivo, Echinochloa crus-galli, (L.) Beau; settings: rated four to five weeks after treatment
Method in brief: as §2

ZEAMX Corn, Field [5] = assay: Preemergence herbicidal evaluation, ZEAMX; type: in vivo, Zea mays, L. (Sammel-Bezeichnung); settings: rated four to five weeks after treatment
Method in brief: as §2

GALAP Galium = assay: Postemergence herbicidal evaluation, GALAP; type: in vivo, Galium aparine; settings: rated two - three weeks after treatment
Method in brief: as §1

[6] = test system: TRZAWR Wheat, Winter, cv Riband; assay: Postemergence herbicidal evaluation, TRZAWR; type: in vivo, Triticum aestivum; settings: rated two - three weeks after treatment
Method in brief: as §1

ORYSAT Rice, Tebonnet = assay: Preemergence herbicidal evaluation, ORYSAT; type: in vivo, Oryza sativa, (L.); settings: rated four to five weeks after treatment
Method in brief: as §2

[7] = test system: IPOHE Morningglory, Ivyleaf; assay: Preemergence herbicidal evaluation, IPOHE; type: in vivo, Ipomoea hederacea, (L.) Jacq.; settings: rated four to five weeks after treatment
Method in brief: as §2

GLXMAW Soybean, Williams = assay: Preemergence herbicidal evaluation, GLXMAW; type: in vivo, Glycine max, (L.) Merr. cv Williams; settings: rated four to five weeks after treatment
Method in brief: as §2

[8] = test system: CHEAL Lambsquarters, Common; assay: Postemergence herbicidal evaluation, CHEAL; type: in vivo, Chenopodium album, L.; settings: rated two - three weeks after treatment
Method in brief: as §1

SETVI Foxtail, Green = assay: Postemergence herbicidal evaluation, SETVI; type: in vivo, Setaria viridis, (L.) Beau; settings: rated two - three weeks after treatment
Method in brief: as §1

COC(=O)COc1ccc(-n2nnc3cc(F)c(-n4c(=O)cc(C(F)(F)F)n(C)c4=O)cc32)cc1 [Example 45]
Postemergence herbicidal rating ZEAMX (ZEAMX Corn, Field [1]): 9.0
Preemergence herbicidal rating, TRZAWR ([2]; rate 0.016 kg/ha): 0.0
Preemergence herbicidal rating, TRZAWR ([2]; rate 0.032 kg/ha): 0.0
Preemergence herbicidal rating, TRZAWR ([2]; rate 0.062 kg/ha): 0.0
Preemergence herbicidal rating, TRZAWR ([2]; rate 0.125 kg/ha): 1.0
Postemergence herbicidal rating ECHCG (ECHOG Barnyardgrass [3]; rate 0.008 kg/ha): 0.0
Postemergence herbicidal rating ECHCG (ECHOG Barnyardgrass [3]; rate 0.016 kg/ha): 5.0
Postemergence herbicidal rating ECHCG (ECHOG Barnyardgrass [3]; rate 0.032 kg/ha): 8.0
Postemergence herbicidal rating ECHCG (ECHOG Barnyardgrass [3]; rate 0.062 kg/ha): 9.0
Preemergence herbicidal rating, CASOB (CASOB Sicklepod; rate 0.016 kg/ha): 0.0
Preemergence herbicidal rating, CASOB (CASOB Sicklepod; rate 0.032 kg/ha): 0.0
Preemergence herbicidal rating, CASOB (CASOB Sicklepod; rate 0.062 kg/ha): 0.0
Preemergence herbicidal rating, ECHCG (ECHOG Barnyardgrass [4]; rate 0.016 kg/ha): 0.0
Preemergence herbicidal rating, ECHCG (ECHOG Barnyardgrass [4]; rate 0.032 kg/ha): 0.0
Preemergence herbicidal rating, ECHCG (ECHOG Barnyardgrass [4]; rate 0.062 kg/ha): 0.0
Preemergence herbicidal rating, ECHCG (ECHOG Barnyardgrass [4]; rate 0.125 kg/ha): 0.0
Preemergence herbicidal rating, ZEAMX (ZEAMX Corn, Field [5]; rate 0.016 kg/ha): 0.0
Preemergence herbicidal rating, ZEAMX (ZEAMX Corn, Field [5]; rate 0.032 kg/ha): 0.0
Preemergence herbicidal rating, ZEAMX (ZEAMX Corn, Field [5]; rate 0.062 kg/ha): 0.0
Preemergence herbicidal rating, ZEAMX (ZEAMX Corn, Field [5]; rate 0.125 kg/ha): 0.0
Postemergence herbicidal rating GALAP (GALAP Galium; rate 0.008 kg/ha): 0.0
Postemergence herbicidal rating GALAP (GALAP Galium; rate 0.016 kg/ha): 0.0
Postemergence herbicidal rating GALAP (GALAP Galium; rate 0.032 kg/ha): 1.0
Postemergence herbicidal rating GALAP (GALAP Galium; rate 0.062 kg/ha): 3.0
Postemergence herbicidal rating TRZAWR ([6]; rate 0.008 kg/ha): 4.0
Postemergence herbicidal rating TRZAWR ([6]; rate 0.016 kg/ha): 6.0
Postemergence herbicidal rating TRZAWR ([6]; rate 0.032 kg/ha): 6.0
Postemergence herbicidal rating TRZAWR ([6]; rate 0.062 kg/ha): 8.0
Preemergence herbicidal rating, ORYSAT (ORYSAT Rice, Tebonnet; rate 0.016 kg/ha): 0.0
Preemergence herbicidal rating, ORYSAT (ORYSAT Rice, Tebonnet; rate 0.032 kg/ha): 0.0
Preemergence herbicidal rating, ORYSAT (ORYSAT Rice, Tebonnet; rate 0.062 kg/ha): 0.0
Preemergence herbicidal rating, ORYSAT (ORYSAT Rice, Tebonnet; rate 0.125 kg/ha): 5.0
Preemergence herbicidal rating, IPOHE ([7]; rate 0.016 kg/ha): 0.0
Preemergence herbicidal rating, IPOHE ([7]; rate 0.032 kg/ha): 0.0
Preemergence herbicidal rating, IPOHE ([7]; rate 0.062 kg/ha): 0.0
Preemergence herbicidal rating, IPOHE ([7]; rate 0.125 kg/ha): 4.0
Preemergence herbicidal rating, GLXMAW (GLXMAW Soybean, Williams; rate 0.016 kg/ha): 0.0
Preemergence herbicidal rating, GLXMAW (GLXMAW Soybean, Williams; rate 0.032 kg/ha): 0.0
Preemergence herbicidal rating, GLXMAW (GLXMAW Soybean, Williams; rate 0.062 kg/ha): 0.0
Preemergence herbicidal rating, GLXMAW (GLXMAW Soybean, Williams; rate 0.125 kg/ha): 1.0
Postemergence herbicidal rating CHEAL ([8]; rate 0.008 kg/ha): 2.0
Postemergence herbicidal rating CHEAL ([8]; rate 0.016 kg/ha): 4.0
Postemergence herbicidal rating CHEAL ([8]; rate 0.032 kg/ha): 7.0
Postemergence herbicidal rating CHEAL ([8]; rate 0.062 kg/ha): 7.0
Postemergence herbicidal rating SETVI (SETVI Foxtail, Green; rate 0.008 kg/ha): 3.0
Postemergence herbicidal rating SETVI (SETVI Foxtail, Green; rate 0.016 kg/ha): 8.0
Postemergence herbicidal rating SETVI (SETVI Foxtail, Green; rate 0.032 kg/ha): 9.0
Postemergence herbicidal rating SETVI (SETVI Foxtail, Green; rate 0.062 kg/ha): 9.0
